Laboratory results reported in patent US4542137A, “Alkylaminodesoxy-1.4;3.6-dianhydrohexitol nitrates substituted by purine bases and pharmaceutical compositions” (priority 1980, dated 1985).

Tested on: mongrel dogs
Experiment: circulatory pharmacological effectiveness on narcotised dogs, intravenous
Format: in vivo, dog
[1] = dog i.v. ISDN/9c 1, 1d 0.5 mg/kg, 40 min
[2] = dog i.v. ISDN/9c 1, 1d 0.5 mg/kg, 50 min
[3] = dog i.v. ISDN/9c 1, 1d 0.5 mg/kg, 60 min
[4] = dog i.v. ISDN/9c 1, 1d 0.5 mg/kg, 90 min
[5] = dog i.v. ISDN/9c 1, 1d 0.5 mg/kg, 120 min
[6] = dog i.v. ISDN/9c 1, 1d 0.5 mg/kg, 150 min
[7] = dog i.v. ISDN/9c 1, 1d 0.5 mg/kg, 180 min
[8] = dog i.v., before administration (v)

## CN(CCCn1cnc2c1c(=O)n(C)c(=O)n2C)[C@H]1CO[C@H]2[C@@H]1OC[C@@H]2O[N+](=O)[O-] [Example 9c, 5-[N-Methyl-N-(3-theophyllin-7-ylpropyl)-amino]-5-desoxy-1.4;3.6-dianhydro-L-iditol 2-nitrate]
[1]
  BFFem: blood flow in the A. femoralis referred to 20 kg body weight: 44.2 mL/min
  HLL: heart capacity left, referred to 20 kg body weight: 0.60 W
  HLR: heart capacity right, referred to 20 kg body weight: 63.2 mW
  HZV: heart minute volume, referred to 20 kg body weight: 2.71 L/min
  LVEDP: end diastolic pressure in the left ventricle: 5.62 mm.Hg
  SV: beat volume, referred to 20 kg body weight: 24.9 mL
  WAP: pulmonalis resistance, referred to 20 kg body weight: 0.30 U
  WFem: moralis resistance, referred to 20 kg body weight: 0.32 KU
  WTP: total peripheral resistance, referred to 20 kg body weight: 5.05 U
  dp/dt: rate of pressure increase in the left ventricle: 2203.1 mm.Hg/sec
[2]
  APdiast: diastolic aorta pressure: 88.2 mm.Hg
  APsyst: systolic aorta pressure: 142.5 mm.Hg
  BFFem: blood flow in the A. femoralis referred to 20 kg body weight: 26.6 mL/min
  HF: heart frequency: 105.5
  HLL: heart capacity left, referred to 20 kg body weight: 0.61 W
  HLR: heart capacity right, referred to 20 kg body weight: 61.7 mW
  HZV: heart minute volume, referred to 20 kg body weight: 2.68 L/min
  LVEDP: end diastolic pressure in the left ventricle: 6.19 mm.Hg
  SV: beat volume, referred to 20 kg body weight: 25.5 mL
  WFem: moralis resistance, referred to 20 kg body weight: 0.31 KU
  WTP: total peripheral resistance, referred to 20 kg body weight: 5.24 U
  dp/dt: rate of pressure increase in the left ventricle: 2165.6 mm.Hg/sec
[3]
  APdiast: diastolic aorta pressure: 88.2 mm.Hg
  APsyst: systolic aorta pressure: 144.7 mm.Hg
  BFFem: blood flow in the A. femoralis referred to 20 kg body weight: 45.8 mL/min
  HF: heart frequency: 103.2
  HLL: heart capacity left, referred to 20 kg body weight: 0.59 W
  HLR: heart capacity right, referred to 20 kg body weight: 59.1 mW
  HZV: heart minute volume, referred to 20 kg body weight: 2.59 L/min
  SV: beat volume, referred to 20 kg body weight: 25.1 mL
  WAP: pulmonalis resistance, referred to 20 kg body weight: 0.27 U
  WFem: moralis resistance, referred to 20 kg body weight: 0.32 KU
  WTP: total peripheral resistance, referred to 20 kg body weight: 5.48 U
  dp/dt: rate of pressure increase in the left ventricle: 2109.4 mm.Hg/sec
[4]
  APdiast: diastolic aorta pressure: 90.9 mm.Hg
  APsyst: systolic aorta pressure: 148.1 mm.Hg
  BFFem: blood flow in the A. femoralis referred to 20 kg body weight: 41.7 mL/min
  HF: heart frequency: 98.0
  HLL: heart capacity left, referred to 20 kg body weight: 0.56 W
  HLR: heart capacity right, referred to 20 kg body weight: 59.2 mW
  HZV: heart minute volume, referred to 20 kg body weight: 2.42 L/min
  SV: beat volume, referred to 20 kg body weight: 24.8 mL
  WAP: pulmonalis resistance, referred to 20 kg body weight: 0.33 U
  WFem: moralis resistance, referred to 20 kg body weight: 0.36 KU
  WTP: total peripheral resistance, referred to 20 kg body weight: 6.00 U
  dp/dt: rate of pressure increase in the left ventricle: 1987.5 mm.Hg/sec
[5]
  APdiast: diastolic aorta pressure: 90.9 mm.Hg
  APsyst: systolic aorta pressure: 150.0 mm.Hg
  BFFem: blood flow in the A. femoralis referred to 20 kg body weight: 39.9 mL/min
  HF: heart frequency: 96.7
  HLL: heart capacity left, referred to 20 kg body weight: 0.55 W
  HLR: heart capacity right, referred to 20 kg body weight: 60.8 mW
  HZV: heart minute volume, referred to 20 kg body weight: 2.39 L/min
  LVEDP: end diastolic pressure in the left ventricle: 7.73 mm.Hg
  SV: beat volume, referred to 20 kg body weight: 24.7 mL
  WAP: pulmonalis resistance, referred to 20 kg body weight: 0.35 U
  WFem: moralis resistance, referred to 20 kg body weight: 0.38 KU
  WTP: total peripheral resistance, referred to 20 kg body weight: 6.07 U
  dp/dt: rate of pressure increase in the left ventricle: 1837.5 mm.Hg/sec
[6]
  APdiast: diastolic aorta pressure: 88.7 mm.Hg
  APsyst: systolic aorta pressure: 148.7 mm.Hg
  BFFem: blood flow in the A. femoralis referred to 20 kg body weight: 39.0 mL/min
  HF: heart frequency: 98.2
  HLL: heart capacity left, referred to 20 kg body weight: 0.54 W
  HLR: heart capacity right, referred to 20 kg body weight: 64.4 mW
  HZV: heart minute volume, referred to 20 kg body weight: 2.38 L/min
  LVEDP: end diastolic pressure in the left ventricle: 7.87 mm.Hg
  SV: beat volume, referred to 20 kg body weight: 24.3 mL
  WAP: pulmonalis resistance, referred to 20 kg body weight: 0.40 U
  WFem: moralis resistance, referred to 20 kg body weight: 0.37 KU
  WTP: total peripheral resistance, referred to 20 kg body weight: 5.92 U
  dp/dt: rate of pressure increase in the left ventricle: 1809.4 mm.Hg/sec
[7]
  APdiast: diastolic aorta pressure: 87.2 mm.Hg
  APsyst: systolic aorta pressure: 148.1 mm.Hg
  BFFem: blood flow in the A. femoralis referred to 20 kg body weight: 42.8 mL/min
  HF: heart frequency: 100.0
  HLL: heart capacity left, referred to 20 kg body weight: 0.55 W
  HLR: heart capacity right, referred to 20 kg body weight: 67.5 mW
  HZV: heart minute volume, referred to 20 kg body weight: 2.47 L/min
  LVEDP: end diastolic pressure in the left ventricle: 7.87 mm.Hg
  SV: beat volume, referred to 20 kg body weight: 24.8 mL
  WAP: pulmonalis resistance, referred to 20 kg body weight: 0.41 U
  WFem: moralis resistance, referred to 20 kg body weight: 0.33 KU
  WTP: total peripheral resistance, referred to 20 kg body weight: 5.61 U
  dp/dt: rate of pressure increase in the left ventricle: 1743.7 mm.Hg/sec
[8]
  APdiast: diastolic aorta pressure: 78.7 mm.Hg
  APsyst: systolic aorta pressure: 147.2 mm.Hg
  BFFem: blood flow in the A. femoralis referred to 20 kg body weight: 48.0 mL/min
  HF: heart frequency: 102.5
  HLL: heart capacity left, referred to 20 kg body weight: 0.56 W
  HLR: heart capacity right, referred to 20 kg body weight: 63.08 mW
  HZV: heart minute volume, referred to 20 kg body weight: 2.62 L/min
  PAP: average pressure in the A. pulmonalis: 13.6 mm.Hg
  WFem: moralis resistance, referred to 20 kg body weight: 0.29 KU
  WTP: total peripheral resistance, referred to 20 kg body weight: 5.15 U
  dp/dt: rate of pressure increase in the left ventricle: 1837.5 mm.Hg/sec
dog, in vivo
  BFFem: blood flow in the A. femoralis referred to 20 kg body weight: 41.9 mL/min
dog, in vivo, iv
  PRV: pressure in the right atrium: 3.0
iv
  LVEDP: end diastolic pressure in the left ventricle: 7.60 mm.Hg
  SV: beat volume, referred to 20 kg body weight: 25.9 mL
  WAP: pulmonalis resistance, referred to 20 kg body weight: 0.29 U
